Measured values as given in publication PMC5218480 (PLoS ONE, 2017).

Test system: MV-4-11 cells
Test: Gene expression microarray analysis (Affymetrix PrimeView) and GSEA
Format: cell-based, human
Parameters: RFU PODN (11730768_x_at) / Fold change /veh PODN (11730768_x_at) / RFU LINC00158 (11744669_a_at) / Fold change /veh LINC00158 (11744669_a_at) / RFU DUSP10 (11751237_a_at) / Fold change /veh DUSP10 (11751237_a_at) / RFU ID3 (11757404_x_at) / Fold change /veh ID3 (11757404_x_at) / RFU PLEKHG5 (11737974_s_at) / Fold change /veh PLEKHG5 (11737974_s_at) / RFU LRRC4B (11730491_at) / Fold change /veh LRRC4B (11730491_at) / RFU GIMAP4 (11747438_a_at) / Fold change /veh GIMAP4 (11747438_a_at) / RFU KRT8 (11758183_x_at) / Fold change /veh KRT8 (11758183_x_at) / RFU CNN1 (11734310_a_at) / Fold change /veh CNN1 (11734310_a_at) / RFU VPS37D (11726825_at) / Fold change /veh VPS37D (11726825_at) / RFU C10orf10 (11716522_x_at) / Fold change /veh C10orf10 (11716522_x_at) / RFU KIR2DL2 /// KIR2DL4 /// KIR2DL5A /// KIR2DL5B /// KIR2DS1 /// KIR2DS2 /// KIR2DS3 /// KIR2DS4 /// KIR3DL3 /// KIR3DL3 /// KIR3DS1 (11738374_at) / Fold change /veh KIR2DL2 /// KIR2DL4 /// KIR2DL5A /// KIR2DL5B /// KIR2DS1 /// KIR2DS2 /// KIR2DS3 /// KIR2DS4 /// KIR3DL3 /// KIR3DL3 /// KIR3DS1 (11738374_at) / RFU C1QL1 (11718748_at) / Fold change /veh C1QL1 (11718748_at) / RFU TMPRSS4 (11747572_a_at) / Fold change /veh TMPRSS4 (11747572_a_at) / RFU HAMP (11756126_x_at) / Fold change /veh HAMP (11756126_x_at) / RFU RNFT2 (11725882_a_at) / Fold change /veh RNFT2 (11725882_a_at) / RFU NR4A2 (11747474_a_at) / Fold change /veh NR4A2 (11747474_a_at) / RFU ABCC12 (11746883_a_at) / Fold change /veh ABCC12 (11746883_a_at) / RFU TMEM136 (11760407_x_at) / Fold change /veh TMEM136 (11760407_x_at) / RFU CLDN22 /// WWC2 (11732394_at) / Fold change /veh CLDN22 /// WWC2 (11732394_at) / RFU HLA-DPB1 (11760878_x_at) / Fold change /veh HLA-DPB1 (11760878_x_at) / RFU SPINT1 (11716480_a_at) / Fold change /veh SPINT1 (11716480_a_at) / RFU GAP43 (11754022_s_at) / Fold change /veh GAP43 (11754022_s_at) / RFU A4GNT (11735810_at) / Fold change /veh A4GNT (11735810_at) / RFU PRB3 (11715151_x_at) / Fold change /veh PRB3 (11715151_x_at) / RFU TUBB4B (11761932_at) / Fold change /veh TUBB4B (11761932_at) / RFU CAPN14 (11732068_a_at) / Fold change /veh CAPN14 (11732068_a_at) / RFU TMCC2 (11721928_a_at) / Fold change /veh TMCC2 (11721928_a_at) / RFU IRGQ (11745062_a_at) / Fold change /veh IRGQ (11745062_a_at) / RFU FAM174B (11720279_a_at) / Fold change /veh FAM174B (11720279_a_at) / RFU TMPRSS4 (11748680_a_at) / Fold change /veh TMPRSS4 (11748680_a_at) / RFU FAM212B (11763350_a_at) / Fold change /veh FAM212B (11763350_a_at) / RFU PLEKHG5 (11743358_a_at) / Fold change /veh PLEKHG5 (11743358_a_at) / RFU ZSCAN30 (11745921_a_at) / Fold change /veh ZSCAN30 (11745921_a_at) / RFU CMKLR1 (11741424_a_at) / Fold change /veh CMKLR1 (11741424_a_at) / RFU LOC101060620 /// MAPK8IP1 (11723275_at) / Fold change /veh LOC101060620 /// MAPK8IP1 (11723275_at) / RFU SPTSSB (11747773_x_at) / Fold change /veh SPTSSB (11747773_x_at) / RFU PRSS12 (11739890_at) / Fold change /veh PRSS12 (11739890_at) / RFU BIN1 (11741810_x_at) / Fold change /veh BIN1 (11741810_x_at) / RFU WNT11 (11732464_a_at) / Fold change /veh WNT11 (11732464_a_at) / RFU C10orf10 (11716521_a_at) / Fold change /veh C10orf10 (11716521_a_at) / RFU C5orf56 (11738089_at) / Fold change /veh C5orf56 (11738089_at) / RFU CYB561 (11721691_x_at) / Fold change /veh CYB561 (11721691_x_at) / RFU ANKRD19P (11752326_a_at) / Fold change /veh ANKRD19P (11752326_a_at) / RFU OR2T12 /// OR2T33 /// OR2T8 (11738714_s_at) / Fold change /veh OR2T12 /// OR2T33 /// OR2T8 (11738714_s_at) / RFU VCAN (11748164_a_at) / Fold change /veh VCAN (11748164_a_at) / RFU JSRP1 (11732532_at) / Fold change /veh JSRP1 (11732532_at) / RFU KRTAP10-11 (11738290_x_at) / Fold change /veh KRTAP10-11 (11738290_x_at) / RFU MYO3A (11730013_a_at) / Fold change /veh MYO3A (11730013_a_at) / RFU EBF3 (11725865_a_at) / Fold change /veh EBF3 (11725865_a_at) / RFU CAMK2N1 (11719241_x_at) / Fold change /veh CAMK2N1 (11719241_x_at) / RFU C5orf56 (11738088_a_at) / Fold change /veh C5orf56 (11738088_a_at) / RFU OLFML3 (11715873_a_at) / Fold change /veh OLFML3 (11715873_a_at) / RFU LOC100653217 /// NTM (11731650_a_at) / Fold change /veh LOC100653217 /// NTM (11731650_a_at) / RFU MAPK11 (11762145_a_at) / Fold change /veh MAPK11 (11762145_a_at) / RFU FIZ1 (11724087_x_at) / Fold change /veh FIZ1 (11724087_x_at) / RFU OASL (11726364_x_at) / Fold change /veh OASL (11726364_x_at) / RFU SOX15 (11748057_x_at) / Fold change /veh SOX15 (11748057_x_at) / RFU CD79A (11719716_a_at) / Fold change /veh CD79A (11719716_a_at) / RFU HIST1H1D (11736915_at) / Fold change /veh HIST1H1D (11736915_at) / RFU CASKIN2 (11723855_a_at) / Fold change /veh CASKIN2 (11723855_a_at) / RFU LOC730098 (11760151_x_at) / Fold change /veh LOC730098 (11760151_x_at) / RFU OR4N2 (11742367_at) / Fold change /veh OR4N2 (11742367_at) / RFU PRRT2 (11749266_a_at) / Fold change /veh PRRT2 (11749266_a_at) / RFU SNX32 (11753110_a_at) / Fold change /veh SNX32 (11753110_a_at) / RFU CDHR5 (11726645_a_at) / Fold change /veh CDHR5 (11726645_a_at) / RFU RCAN1 (11760418_a_at) / Fold change /veh RCAN1 (11760418_a_at) / RFU FAM167A (11723789_a_at) / Fold change /veh FAM167A (11723789_a_at) / RFU FAM26E (11764081_at) / Fold change /veh FAM26E (11764081_at) / RFU ISYNA1 (11749810_s_at) / Fold change /veh ISYNA1 (11749810_s_at) / RFU ACY1 (11761880_at) / Fold change /veh ACY1 (11761880_at) / RFU 11764098_at / Fold change /veh 11764098_at / RFU SAMD14 (11745864_x_at) / Fold change /veh SAMD14 (11745864_x_at) / RFU NPB (11741838_a_at) / Fold change /veh NPB (11741838_a_at) / RFU TMPRSS6 (11731388_a_at) / Fold change /veh TMPRSS6 (11731388_a_at) / RFU KRTAP10-2 (11738614_at) / Fold change /veh KRTAP10-2 (11738614_at) / RFU ARHGAP8 /// PRR5-ARHGAP8 (11727945_x_at) / Fold change /veh ARHGAP8 /// PRR5-ARHGAP8 (11727945_x_at) / RFU KRTAP5-7 /// NADSYN1 (11734609_at) / Fold change /veh KRTAP5-7 /// NADSYN1 (11734609_at) / RFU RASL12 (11751679_a_at) / Fold change /veh RASL12 (11751679_a_at) / RFU CDKN2B (11736163_a_at) / Fold change /veh CDKN2B (11736163_a_at) / RFU PRF1 (11729649_at) / Fold change /veh PRF1 (11729649_at) / RFU, ZNF638 /// ZNF638-IT1 / Fold change vs veh, ZNF638 /// ZNF638-IT1 / RFU, PANK3 / Fold change vs veh, PANK3 / RFU, SH3YL1 / Fold change vs veh, SH3YL1 / RFU, ZEB2 / Fold change vs veh, ZEB2 / RFU, NRIP1 / Fold change vs veh, NRIP1 / RFU, PTTG1IP / Fold change vs veh, PTTG1IP / RFU, CAPN2 / Fold change vs veh, CAPN2 / RFU, MED14 / Fold change vs veh, MED14 / RFU, SNORA58 / Fold change vs veh, SNORA58 / RFU, C1orf63 / Fold change vs veh, C1orf63 / RFU, LRRFIP1 / Fold change vs veh, LRRFIP1 / RFU, NDUFAF7 / Fold change vs veh, NDUFAF7 / RFU, SLC12A2 / Fold change vs veh, SLC12A2 / RFU, IBTK / Fold change vs veh, IBTK / RFU, ESF1 / Fold change vs veh, ESF1 / Fold change vs veh, TMEM50B / RFU, TAOK1 / Fold change vs veh, TAOK1 / RFU, ACBD3 / Fold change vs veh, ACBD3 / RFU, TMA16 / Fold change vs veh, TMA16 / RFU, RWDD3 / Fold change vs veh, RWDD3 / RFU, BCAT1 / Fold change vs veh, BCAT1 / RFU, EDEM3 / Fold change vs veh, EDEM3 / RFU, TMEM33 / Fold change vs veh, TMEM33 / RFU, WDR75 / Fold change vs veh, WDR75 / RFU, AHCTF1 / Fold change vs veh, AHCTF1 / RFU, TFRC / Fold change vs veh, TFRC / RFU, ZDHHC17 / Fold change vs veh, ZDHHC17 / RFU, NOM1 / Fold change vs veh, NOM1 / RFU, ARL8B / Fold change vs veh, ARL8B / RFU, ZBTB11 / Fold change vs veh, ZBTB11 / RFU, TAMM41 / Fold change vs veh, TAMM41 / RFU, KIAA1704 /// LOC100996395 / Fold change vs veh, KIAA1704 /// LOC100996395 / RFU, ING1 / Fold change vs veh, ING1 / RFU, TRMT61B / Fold change vs veh, TRMT61B / RFU, FUBP3 / Fold change vs veh, FUBP3 / RFU, TP53 / Fold change vs veh, TP53 / RFU, TNKS2 / Fold change vs veh, TNKS2 / RFU, ZFP14 / Fold change vs veh, ZFP14 / RFU, ACTR2 / Fold change vs veh, ACTR2 / RFU, PPP3R1 / Fold change vs veh, PPP3R1 / RFU, PIK3R1 / Fold change vs veh, PIK3R1 / RFU, HNRNPA1 / Fold change vs veh, HNRNPA1 / RFU, RNF170 / Fold change vs veh, RNF170 / RFU, ZNF28 / Fold change vs veh, ZNF28 / RFU, RNGTT / Fold change vs veh, RNGTT / RFU, OGT / Fold change vs veh, OGT / RFU, BRD1 / Fold change vs veh, BRD1 / RFU, MARS / Fold change vs veh, MARS / RFU, ZNF655 / Fold change vs veh, ZNF655 / RFU, FAHD1 / Fold change vs veh, FAHD1 / RFU, BDP1 / Fold change vs veh, BDP1 / RFU, LRRCC1 / Fold change vs veh, LRRCC1 / RFU, ARID1A / Fold change vs veh, ARID1A / RFU, ZNF146 / Fold change vs veh, ZNF146 / RFU, ZNF330 / Fold change vs veh, ZNF330 / RFU, GPN3 / Fold change vs veh, GPN3 / RFU, C9orf123 / Fold change vs veh, C9orf123 / RFU, N4BP2L2 / Fold change vs veh, N4BP2L2 / RFU, ARFIP1 / Fold change vs veh, ARFIP1 / RFU, FAM179B / Fold change vs veh, FAM179B / RFU, BCL10 / Fold change vs veh, BCL10 / RFU, UHRF1BP1L / Fold change vs veh, UHRF1BP1L / RFU, BET1 / Fold change vs veh, BET1 / RFU, CNOT2 / Fold change vs veh, CNOT2 / RFU, ZNF268 / Fold change vs veh, ZNF268 / Fold change vs veh, ZNF507 / RFU, DGCR2 / Fold change vs veh, DGCR2 / RFU, WDSUB1 / Fold change vs veh, WDSUB1 / Fold change vs veh, HSP90B1 /// MIR3652 / RFU, ADSS / Fold change vs veh, ADSS / RFU, GK / Fold change vs veh, GK / RFU, ZNF148 / Fold change vs veh, ZNF148 / RFU, TAF9 / Fold change vs veh, TAF9 / RFU, SLC1A5 / Fold change vs veh, SLC1A5 / RFU, SLMO2 / Fold change vs veh, SLMO2 / RFU, ABCC4 / Fold change vs veh, ABCC4 / RFU, LOC101060439 /// RAP1B / Fold change vs veh, LOC101060439 /// RAP1B / RFU, RFX7 / Fold change vs veh, RFX7 / RFU, GTPBP10 / Fold change vs veh, GTPBP10 / RFU, CNEP1R1 / Fold change vs veh, CNEP1R1 / RFU, BIVM-ERCC5 /// ERCC5 / Fold change vs veh, BIVM-ERCC5 /// ERCC5 / RFU, ILF3 / Fold change vs veh, ILF3 / RFU 11762660_at / Fold change /veh 11762660_at / RFU VCAN (11757783_s_at) / Fold change /veh VCAN (11757783_s_at) / RFU DDX43 (11728927_at) / Fold change /veh DDX43 (11728927_at) / RFU KRT8 (11758188_x_at) / Fold change /veh KRT8 (11758188_x_at) / RFU NKD1 (11759106_at) / Fold change /veh NKD1 (11759106_at) / RFU SRD5A1 (11742802_a_at) / Fold change /veh SRD5A1 (11742802_a_at) / RFU TPSAB1 /// TPSB2 (11721975_s_at) / Fold change /veh TPSAB1 /// TPSB2 (11721975_s_at) / RFU GSTM3 (11746129_a_at) / Fold change /veh GSTM3 (11746129_a_at) / RFU IL23R (11737362_x_at) / Fold change /veh IL23R (11737362_x_at) / RFU TMEM51 (11727254_a_at) / Fold change /veh TMEM51 (11727254_a_at) / RFU PIWIL2 (11732686_x_at) / Fold change /veh PIWIL2 (11732686_x_at) / RFU ORM1 (11744905_x_at) / Fold change /veh ORM1 (11744905_x_at) / RFU CCDC152 (11743942_at) / Fold change /veh CCDC152 (11743942_at) / RFU ECM1 (11717891_a_at) / Fold change /veh ECM1 (11717891_a_at) / RFU IL23R (11748794_a_at) / Fold change /veh IL23R (11748794_a_at) / RFU TNFAIP8L3 (11732012_x_at) / Fold change /veh TNFAIP8L3 (11732012_x_at) / RFU MBOAT4 (11741988_at) / Fold change /veh MBOAT4 (11741988_at) / RFU 11764193_at / Fold change /veh 11764193_at / RFU TMEM53 (11763286_at) / Fold change /veh TMEM53 (11763286_at) / RFU MAGEB2 (11727129_at) / Fold change /veh MAGEB2 (11727129_at) / RFU TMEM200A (11744735_a_at) / Fold change /veh TMEM200A (11744735_a_at) / RFU CCDC152 (11751479_a_at) / Fold change /veh CCDC152 (11751479_a_at) / RFU FAM211A (11726209_a_at) / Fold change /veh FAM211A (11726209_a_at) / RFU RGS16 (11746705_a_at) / Fold change /veh RGS16 (11746705_a_at) / RFU VCAN (11755009_s_at) / Fold change /veh VCAN (11755009_s_at) / RFU RHOB (11743442_s_at) / Fold change /veh RHOB (11743442_s_at) / RFU RGS16 (11720943_a_at) / Fold change /veh RGS16 (11720943_a_at) / RFU RGS16 (11720944_at) / Fold change /veh RGS16 (11720944_at) / RFU, VPS4B / Fold change vs veh, VPS4B / RFU, CREB1 / Fold change vs veh, CREB1 / RFU, DNAJC13 / Fold change vs veh, DNAJC13 / RFU, GNAQ / Fold change vs veh, GNAQ / RFU, CDK5R1 / Fold change vs veh, CDK5R1 / RFU, ZRANB3 / Fold change vs veh, ZRANB3 / RFU, CUL4A / Fold change vs veh, CUL4A / RFU, CCNY / Fold change vs veh, CCNY / RFU, UFL1 / Fold change vs veh, UFL1 / RFU, COG3 / Fold change vs veh, COG3 / RFU, DIAPH2 / Fold change vs veh, DIAPH2 / RFU, SKA2 / Fold change vs veh, SKA2 / RFU, AFF3 / Fold change vs veh, AFF3 / RFU, LMF1 / Fold change vs veh, LMF1 / RFU, IPO11 / Fold change vs veh, IPO11 / RFU, DFFB / Fold change vs veh, DFFB / RFU, FOXP1 / Fold change vs veh, FOXP1 / RFU, CARD8 / Fold change vs veh, CARD8 / RFU, STRN3 / Fold change vs veh, STRN3 / RFU, ADK / Fold change vs veh, ADK / RFU, RASSF2 / Fold change vs veh, RASSF2 / RFU, WIPF1 / Fold change vs veh, WIPF1 / RFU, LARP1B / Fold change vs veh, LARP1B / RFU, RASA1 / Fold change vs veh, RASA1 / RFU, RB1 / Fold change vs veh, RB1 / RFU, PPFIA1 / Fold change vs veh, PPFIA1 / RFU, MAT2A / Fold change vs veh, MAT2A / RFU, CCT5 / Fold change vs veh, CCT5 / RFU, WDR92 / Fold change vs veh, WDR92 / RFU, CUX1 / Fold change vs veh, CUX1 / RFU, TTC7A / Fold change vs veh, TTC7A / RFU, TMEM135 / Fold change vs veh, TMEM135 / RFU, DEPTOR / Fold change vs veh, DEPTOR / RFU, CPM / Fold change vs veh, CPM / RFU, DNAJB6 / Fold change vs veh, DNAJB6 / RFU, CACNA2D3 / Fold change vs veh, CACNA2D3 / RFU, DTX4 / Fold change vs veh, DTX4 / RFU, TFCP2 / Fold change vs veh, TFCP2 / RFU, GMCL1 /// GMCL1P1 / Fold change vs veh, GMCL1 /// GMCL1P1 / RFU, AEBP2 / Fold change vs veh, AEBP2 / RFU, SNHG1 /// SNORD22 /// SNORD25 /// SNORD26 /// SNORD27 /// SNORD28 /// SNORD29 /// SNORD31 / Fold change vs veh, SNHG1 /// SNORD22 /// SNORD25 /// SNORD26 /// SNORD27 /// SNORD28 /// SNORD29 /// SNORD31 / Fold change (Aza/veh), C12orf56 (ProbeSet 11735607_a_at) / Fold change (ACY-1035/veh), C12orf56 (ProbeSet 11735607_a_at) / Fold change (Aza/veh), FGFR1OP (ProbeSet 11751329_s_at) / Fold change (ACY-1035/veh), FGFR1OP (ProbeSet 11751329_s_at) / Fold change (Aza/veh), VPS36 (ProbeSet 11739960_a_at) / Fold change (ACY-1035/veh), VPS36 (ProbeSet 11739960_a_at) / RFU SYPL1 (11715823_x_at) / Fold change /veh SYPL1 (11715823_x_at) / RFU IGFBP7 (11715501_s_at) / Fold change /veh IGFBP7 (11715501_s_at) / RFU REEP3 (11722064_at) / Fold change /veh REEP3 (11722064_at) / RFU IGLL1 (11728026_x_at) / Fold change /veh IGLL1 (11728026_x_at): dose or concentration left out as unconfirmed
Settings: MV-4-11 cells, 48 hours

## Nc1ccc(-c2cccs2)cc1NC(=O)c1ccc2c(c1)cc(C1CC1)n2CCN1CCOCC1 [ACY-1035]
  Fold change /veh LOC100653217 /// NTM (11731650_a_at): 0.99
